The values that follow come from patent US20250129070A1, “BIFUNCTIONAL ANDROGEN RECEPTOR COMPOUNDS” (priority 2023, published 2025).

Broadly, the EC50 is the concentration needed to bring the measured effect to its halfway point. Read a high EC50 as lower potency in that assay. Broadly, the IC50 is the point on the concentration scale where inhibition reaches its midpoint. Read a low IC50 as inhibition by little substance.

Test [1] concerns AR / CBP ternary complex. The test can be described thus: Ternary complex formation assay (sandwich ELISA, AR capture / CBP detection) in VCaP cell lysates. The format is cell-based. Particulars: 1.5 hours treatment, sandwich ELISA (AR capture, CBP or p300 detection). In outline:
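Anti-AR (AR 441)-coated plates capture AR from lysates of VCaP cells grown ≥3 days at 50K/well in 5% charcoal-stripped FBS, dosed with bifunctional for 1.5 h and lysed 30 min at 4 °C. Co-captured CBP/p300 is probed with rabbit mAb and HRP anti-rabbit, then QuantaRed fluorescence (570/585) is read at 0, 5 and 15 min.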
(An ELISA detects its analyte on a solid surface through an enzyme-linked reagent.)

Test [2] has as its system VCaP cells. The test can be described thus: VCaP growth inhibition assay. The format is cell-based. Particulars: 30 pM R1881, 9 days, CTG. In outline:
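Growth read by CTG luminescence after 9-day exposure to compound (final 100 nM–10 fM, 1:5 steps) plus 30 pM R1881, in phenol red-free DMEM with 5% CSS. Cells pre-incubated 72 h before dosing; IC50 by nonlinear 4-parameter regression.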

Molecule `CC(=O)N1CCc2c(c(-c3cccc4cc(-c5ccc(CCC6CC7(C6)CN(c6ncc(C(=O)NC8C(C)(C)C(Oc9ccc(C#N)c(Cl)c9)C8(C)C)cn6)C7)nc5)ncc34)nn2C2CCOCC2)C1` (stereo not shown) [Compound 227, 2-[6-[2-[5-[8-(5-acetyl-1-tetrahydropyran-4-yl-6,7-dihydro-4H-pyrazolo[4,3-c]pyridin-3-yl)-3-isoquinolyl]-2-pyridyl]ethyl]-2-azaspiro[3.3]heptan-2-yl]-N-[3-(3-chloro-4-cyano-phenoxy)-2,2,4,4-tetramethyl-cyclobutyl]pyrimidine-5-carboxamide] gave an EC50 in test [1] of less than 1 nM. This molecule also gave an IC50 in test [2] of no more than 0.1 nM.
The like results for `COc1cc(OC2C(C)(C)C(NC(=O)c3ccc(N4CCC(CCc5ccc(-c6cc7c(cc6C(F)F)N(c6nn(C8CCOCC8)c8c6CN(C(C)=O)CC8)CCC7)cn5)CC4)cc3)C2(C)C)ccc1C#N` (stereo not shown) [Compound 247, 4-[4-[2-[5-[1-(5-acetyl-1-tetrahydropyran-4-yl-6,7-dihydro-4H-pyrazolo[4,3-c]pyridin-3-yl)-7-(difluoromethyl)-3,4-dihydro-2H-quinolin-6-yl]-2-pyridyl]ethyl]-1-piperidyl]-N-[3-(4-cyano-3-methoxy-phenoxy)-2,2,4,4-tetramethyl-cyclobutyl]benzamide] were, in that order, less than 1 nM and 0.1 to 1 nM.
Taken in the same sequence, the figures for `COc1cc(OC2C(C)(C)C(NC(=O)c3ccc(N4CC5(CCC(N6CCC(n7nc(N8CCCc9cc(-c%10cnn(C)c%10)c(C)cc98)c8c7CCN(C(C)=O)C8)CC6)CC5)C4)cc3)C2(C)C)ccc1C#N` (stereo not shown) [Compound 449, 4-[7-[4-[5-acetyl-3-[7-methyl-6-(1-methylpyrazol-4-yl)-3,4-dihydro-2H-quinolin-1-yl]-6,7-dihydro-4H-pyrazolo[4,3-c]pyridin-1-yl]-1-piperidyl]-2-azaspiro[3.5]nonan-2-yl]-N-[3-(4-cyano-3-methoxy-phenoxy)-2,2,4,4-tetramethyl-cyclobutyl]benzamide] were less than 1 nM and 0.1 to 1 nM.
The like results for `COc1cc(OC2C(C)(C)C(NC(=O)c3ccc(OC4CC5(C4)CC(N4CCC(n6nc(N7CCCc8cc(-c9cnn(C)c9)c(C(F)F)cc87)c7c6CCN(C(C)=O)C7)CC4)C5)cc3)C2(C)C)ccc1C#N` (stereo not shown) [Compound 386, 4-[6-[4-[5-acetyl-3-[7-(difluoromethyl)-6-(1-methylpyrazol-4-yl)-3,4-dihydro-2H-quinolin-1-yl]-6,7-dihydro-4H-pyrazolo[4,3-c]pyridin-1-yl]-1-piperidyl]spiro[3.3]heptan-2-yl]oxy-N-[3-(4-cyano-3-methoxy-phenoxy)-2,2,4,4-tetramethyl-cyclobutyl]benzamide] were, in that order, less than 1 nM and 0.1 to 1 nM.
In test [1], `CN1C(=O)CCc2cc(N3CCCc4cc(-c5ccc(CCC6CCN(c7ncc(C(=O)NC8C(C)(C)C(Oc9ccc(C#N)c(Cl)c9)C8(C)C)cn7)CC6)nc5)ncc43)ccc21` (stereo not shown) [Compound 240, N-[3-(3-chloro-4-cyano-phenoxy)-2,2,4,4-tetramethyl-cyclobutyl]-2-[4-[2-[5-[1-(1-methyl-2-oxo-3,4-dihydroquinolin-6-yl)-3,4-dihydro-2H-1,7-naphthyridin-6-yl]-2-pyridyl]ethyl]-1-piperidyl]pyrimidine-5-carboxamide] displayed an EC50 of 1 to 10 nM. This molecule also registered an IC50 in test [2] of 1 to 100 nM.
Taken in the same sequence, the figures for `C[C@@H]1CC(=O)Nc2cccc(-c3ccc4c(c3)c(-c3cnn(C)c3)nn4CCN3CCN(c4ncc(C(=O)NC5C(C)(C)C(Oc6ccc(C#N)c(Cl)c6)C5(C)C)cn4)CC3)c2N1` (stereo partly drawn) [Compound 56, N-[3-(3-chloro-4-cyano-phenoxy)-2,2,4,4-tetramethyl-cyclobutyl]-2-[4-[2-[5-[(4R)-4-methyl-2-oxo-1,3,4,5-tetrahydro-1,5-benzodiazepin-6-yl]-3-(1-methylpyrazol-4-yl)indazol-1-yl]ethyl]piperazin-1-yl]pyrimidine-5-carboxamide] were less than 1 nM and 0.1 to 1 nM.
Taken in the same sequence, the figures for `CC(=O)N1CCc2c(c(-c3cccc4cc(-c5ccc(CC6CC7(C6)CN(c6ncc(C(=O)NC8C(C)(C)C(Oc9ccc(C#N)c(Cl)c9)C8(C)C)cn6)C7)nc5)ncc34)nn2C2CCOCC2)C1` (stereo not shown) [Compound 228, 2-[6-[[5-[8-(5-acetyl-1-tetrahydropyran-4-yl-6,7-dihydro-4H-pyrazolo[4,3-c]pyridin-3-yl)-3-isoquinolyl]-2-pyridyl]methyl]-2-azaspiro[3.3]heptan-2-yl]-N-[3-(3-chloro-4-cyano-phenoxy)-2,2,4,4-tetramethyl-cyclobutyl]pyrimidine-5-carboxamide] were 1 to 10 nM and 0.1 to 1 nM.
Taken in the same sequence, the figures for `Cn1c(=O)n(C)c2cc(-c3cccc4cc(-c5ccc(CCC6CCN(c7ncc(C(=O)NC8C(C)(C)C(Oc9ccc(C#N)c(Cl)c9)C8(C)C)cn7)CC6)nc5)ncc34)ccc21` (stereo not shown) [Compound 232, N-[3-(3-chloro-4-cyano-phenoxy)-2,2,4,4-tetramethyl-cyclobutyl]-2-[4-[2-[5-[8-(1,3-dimethyl-2-oxo-benzimidazol-5-yl)-3-isoquinolyl]-2-pyridyl]ethyl]-1-piperidyl]pyrimidine-5-carboxamide] were 10 to 100 nM and greater than 100 nM.
As for `C[C@@H]1CC(=O)Nc2cccc(-c3ccc4c(c3)c(-c3cnn(C)c3)nn4CCN(C)c3ncc(C(=O)NC4C(C)(C)C(Oc5ccc(C#N)c(Cl)c5)C4(C)C)cn3)c2N1` (stereo partly drawn) [Compound 48, N-[3-(3-chloro-4-cyano-phenoxy)-2,2,4,4-tetramethyl-cyclobutyl]-2-[methyl-[2-[5-[(4R)-4-methyl-2-oxo-1,3,4,5-tetrahydro-1,5-benzodiazepin-6-yl]-3-(1-methylpyrazol-4-yl)indazol-1-yl]ethyl]amino]pyrimidine-5-carboxamide], the EC50 in test [1] was greater than 100 nM. For the same molecule, the IC50 in test [2] was in the range of 1 to 100 nM.
The like results for `CC(=O)N1CCc2c(c(N3CCCc4cc(-c5cnn(C)c5)c(C)cc43)nn2C2CCN(CC3CCN(c4ncc(C(=O)NC5C(C)(C)C(Oc6ccc(C#N)c(Cl)c6C)C5(C)C)cn4)CC3(C)C)CC2)C1` (stereo not shown) [Compound 464, 2-[4-[[4-[5-acetyl-3-[7-methyl-6-(1-methylpyrazol-4-yl)-3,4-dihydro-2H-quinolin-1-yl]-6,7-dihydro-4H-pyrazolo[4,3-c]pyridin-1-yl]-1-piperidyl]methyl]-3,3-dimethyl-1-piperidyl]-N-[3-(3-chloro-4-cyano-2-methyl-phenoxy)-2,2,4,4-tetramethyl-cyclobutyl]pyrimidine-5-carboxamide] were, in that order, less than 1 nM and no more than 0.1 nM.
The like results for `CC(=O)N1CCc2c(c(N3CCCc4cc(-c5cnn(C)c5)c(C)cc43)nn2C2CCN(C3CCC4(CC3)CN(c3ncc(C(=O)NC5C(C)(C)C(Oc6ccc(C#N)c(C)c6C)C5(C)C)cn3)C4)CC2)C1` (stereo not shown) [Compound 472, 2-[7-[4-[5-acetyl-3-[7-methyl-6-(1-methylpyrazol-4-yl)-3,4-dihydro-2H-quinolin-1-yl]-6,7-dihydro-4H-pyrazolo[4,3-c]pyridin-1-yl]-1-piperidyl]-2-azaspiro[3.5]nonan-2-yl]-N-[3-(4-cyano-2,3-dimethyl-phenoxy)-2,2,4,4-tetramethyl-cyclobutyl]pyrimidine-5-carboxamide] were, in that order, less than 1 nM and 0.1 to 1 nM.
The like results for `CC(=O)N1CCc2c(c(N3CCCc4cc(-c5cnn(C)c5)c(C(F)F)cc43)nn2C2CCC(C3CCC4(CC3)CN(c3ncc(C(=O)NC5C(C)(C)C(Oc6ccc(C#N)c(Cl)c6)C5(C)C)cn3)C4)CC2)C1` (stereo not shown) [Compound 377, 2-[7-[4-[5-acetyl-3-[7-(difluoromethyl)-6-(1-methylpyrazol-4-yl)-3,4-dihydro-2H-quinolin-1-yl]-6,7-dihydro-4H-pyrazolo[4,3-c]pyridin-1-yl]cyclohexyl]-2-azaspiro[3.5]nonan-2-yl]-N-[3-(3-chloro-4-cyano-phenoxy)-2,2,4,4-tetramethyl-cyclobutyl]pyrimidine-5-carboxamide] were, in that order, 1 to 10 nM and 1 to 100 nM.
For the molecule `CC(=O)N1CCc2c(c(N3CCCc4cc(-c5cnn(C)c5)c(C(F)F)cc43)nn2C2CCN(CC3CCN(c4ccc5c(n4)CN(C4C(C)(C)C(Oc6ccc(C#N)c(Cl)c6)C4(C)C)C5=O)CC3)CC2)C1` (stereo not shown) [Compound 296, 4-[3-[2-[4-[[4-[5-acetyl-3-[7-(difluoromethyl)-6-(1-methylpyrazol-4-yl)-3,4-dihydro-2H-quinolin-1-yl]-6,7-dihydro-4H-pyrazolo[4,3-c]pyridin-1-yl]-1-piperidyl]methyl]-1-piperidyl]-5-oxo-7H-pyrrolo[3,4-b]pyridin-6-yl]-2,2,4,4-tetramethyl-cyclobutoxy]-2-chloro-benzonitrile], the EC50 in test [1] is less than 1 nM. The molecule also had an IC50 in test [2] of 0.1 to 1 nM.
Taken in the same sequence, the figures for `COc1cc(OC2C(C)(C)C(NC(=O)c3ccc(N4CC(OC5CCC(n6nc(N7CCCc8cc(-c9cnn(C)c9)c(C(F)F)cc87)c7c6CCN(C(C)=O)C7)CC5)C4)cc3)C2(C)C)ccc1C#N` (stereo not shown) [Compound 342, 4-[3-[4-[5-acetyl-3-[7-(difluoromethyl)-6-(1-methylpyrazol-4-yl)-3,4-dihydro-2H-quinolin-1-yl]-6,7-dihydro-4H-pyrazolo[4,3-c]pyridin-1-yl]cyclohexoxy]azetidin-1-yl]-N-[3-(4-cyano-3-methoxy-phenoxy)-2,2,4,4-tetramethyl-cyclobutyl]benzamide] were less than 1 nM and 0.1 to 1 nM.
